target: PIK3CG (UniProt P48736); assay: Inhibition of PIK3CG Kinase Activity
Sequence (P48736 whole entry, looked up): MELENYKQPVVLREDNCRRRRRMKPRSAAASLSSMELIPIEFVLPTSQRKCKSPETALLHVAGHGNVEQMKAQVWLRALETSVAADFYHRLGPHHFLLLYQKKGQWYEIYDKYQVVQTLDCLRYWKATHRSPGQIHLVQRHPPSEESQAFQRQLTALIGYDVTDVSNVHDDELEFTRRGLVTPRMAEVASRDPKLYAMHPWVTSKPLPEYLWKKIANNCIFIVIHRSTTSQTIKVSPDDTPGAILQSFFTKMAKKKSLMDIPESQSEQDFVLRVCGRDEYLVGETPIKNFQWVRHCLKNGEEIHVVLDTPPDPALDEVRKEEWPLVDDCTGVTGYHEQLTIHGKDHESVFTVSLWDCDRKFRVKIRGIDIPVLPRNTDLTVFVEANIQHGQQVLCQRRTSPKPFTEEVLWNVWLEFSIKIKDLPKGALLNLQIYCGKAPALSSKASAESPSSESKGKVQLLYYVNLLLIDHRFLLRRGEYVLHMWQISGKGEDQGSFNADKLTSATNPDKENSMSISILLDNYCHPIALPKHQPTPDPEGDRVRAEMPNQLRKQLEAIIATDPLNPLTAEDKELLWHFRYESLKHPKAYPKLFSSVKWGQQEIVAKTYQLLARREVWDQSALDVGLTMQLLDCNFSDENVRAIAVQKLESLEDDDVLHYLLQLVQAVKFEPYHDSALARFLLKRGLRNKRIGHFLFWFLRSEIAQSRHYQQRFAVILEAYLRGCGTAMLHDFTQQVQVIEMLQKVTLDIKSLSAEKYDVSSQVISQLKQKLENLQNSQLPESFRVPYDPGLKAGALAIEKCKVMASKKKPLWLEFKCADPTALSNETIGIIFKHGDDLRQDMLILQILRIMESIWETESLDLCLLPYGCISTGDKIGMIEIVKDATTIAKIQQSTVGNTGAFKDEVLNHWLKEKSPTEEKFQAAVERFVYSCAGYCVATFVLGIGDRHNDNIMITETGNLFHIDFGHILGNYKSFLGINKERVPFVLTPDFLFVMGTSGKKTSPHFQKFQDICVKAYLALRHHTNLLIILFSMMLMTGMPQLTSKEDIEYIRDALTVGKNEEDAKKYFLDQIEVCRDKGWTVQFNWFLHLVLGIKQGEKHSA

SMILES	IC50 [nM]
CCCCCCc1ccc(C(=O)N2CCCOc3ccc(/C=C4\SC(=S)NC4=O)cc32)cc1	4200
O=C1NC(=S)S/C1=C\c1ccc2c(c1)N(C(=O)/C=C/c1ccccc1)CCCO2	1520
Cc1ccc(NC(=O)N2CCCOc3ccc(/C=C4\SC(=S)NC4=O)cc32)cc1	3500
Cc1oc(C(C)(C)C)cc1C(=O)N1CCCOc2ccc(/C=C3\SC(=S)NC3=O)cc21	4600
O=C1NC(=S)S/C1=C\c1ccc2c(c1)N(C(=O)/C=C/c1cccc(C(F)(F)F)c1)CCCO2	4010
O=C1NC(=S)S/C1=C\c1ccc2c(c1)N(C(=O)c1ccc3c(c1)C(=O)c1ccccc1C3=O)CCCO2	4990
O=C1NC(=S)S/C1=C\c1ccc2c(c1)N(C(=O)c1ccc3occc3c1)CCCO2	1530
N#Cc1ccc(C(=O)N2CCCOc3ccc(/C=C4\SC(=S)NC4=O)cc32)cc1	2610
O=C1NC(=S)S/C1=C\c1ccc2c(c1)N(C(=O)COCc1ccccc1)CCCO2	1650

The next compounds have a lower IC50 than those just listed; values first:

IC50 [nM]	SMILES
330	CC1(C)C2CCC1(CS(=O)(=O)N1CCOc3ccc(/C=C4\SC(=S)NC4=O)cc31)CC2
424	O=C1NC(=S)S/C1=C\c1ccc2c(c1)N(C(=O)Oc1ccccc1)CCCO2
115	CN1CCN(Cc2ccccc2C(=O)N2CCOc3ccc(/C=C4\SC(=S)NC4=O)cc32)CC1
115	O=C1NC(=S)S/C1=C\c1ccc2c(c1)N(C(=O)C1CC1)CCCO2
1320	COc1cc(NC(=O)N2CCCOc3ccc(/C=C4\SC(=S)NC4=O)cc32)cc(OC)c1
640	CC(=O)Oc1ccc(OC(=O)N2CCCOc3ccc(/C=C4\SC(=S)NC4=O)cc32)cc1
1380	O=C1NC(=S)S/C1=C\c1ccc2c(c1)N(C(=O)c1ccc(Cl)c(Cl)c1)CCCO2
650	Cc1cc(C)cc(CN2CCOc3ccc(/C=C4\SC(=S)NC4=O)cc32)c1
65	O=C1NC(=S)S/C1=C\c1ccc2c(c1)N(C(=O)c1ccco1)CCO2
14	COc1cc(NC(=O)N2CCOc3ccc(/C=C4\SC(=S)NC4=O)cc32)cc(OC)c1
704	Cc1ccc(OC(=O)N2CCCOc3ccc(/C=C4\SC(=S)NC4=O)cc32)cc1
1140	O=C1NC(=S)S/C1=C\c1ccc2c(c1)N(C(=O)Cc1cccs1)CCCO2
1000	O=C1NC(=S)S/C1=C\c1ccc2c(c1)N(C(=O)C1CCCC1)CCCO2
